The text below walks through data of patent US20150246888A1, “ENOYL REDUCTASE INHIBITORS WITH ANTIBACTERIAL ACTIVITY” (priority 2012, published 2015).

Test [1] has as its system S. aureus (ATCC number 29213). The test is described as follows: microbe, parasite or virus in culture. The test is classed as cell-based.
Test [2] has as its system S. aureus membrane. Briefly: Membrane depolarization as a function of time. The test is classed as cell-based.
The subject of test [3] is B. anthracis, ΔANR strain. Briefly: microbe, parasite or virus in culture. The conditions noted are these: Bacillus anthracis. The test is classed as cell-based.
The subject of test [4] is MRSA (ATCC number 43300). The test is described as follows: microbe, parasite or virus in culture. The test is classed as cell-based, methicillin-resistant Staphylococcus aureus. The conditions noted are these: Staphylococcus aureus.
In test [5] the target is FabI (Francisella tularensis subsp. tularensis, UniProt Q5NGQ3). The test is described as follows: biochemical. On the set-up: species or system F. tularensis subsp. tularensis Schu4.
Test [6] deals with FtuFabI (Francisella tularensis subsp. tularensis, UniProt Q5NGQ3). Briefly: biochemical. On the set-up: species or system F. tularensis subsp. tularensis Schu4.
The test system of test [7] is E. coli TolC-, an efflux defective mutant. The test is described as follows: microbe, parasite or virus in culture. The test is classed as cell-based. The conditions noted are these: Escherichia coli.
Test [8] concerns E. coli (BW251113 strain). The test is described as follows: microbe, parasite or virus in culture. The conditions noted are these: Escherichia coli. The test is classed as cell-based.
In test [9] the test system is S. aureus. Briefly: Cell viability as a function of time (measured with depolarization). The test is classed as cell-based.
Test [10] relates to F. tularensis, strain Utah 112. The test is described as follows: microbe, parasite or virus in culture. The test is classed as cell-based. Particulars: Francisella tularensis, UTAH112.
The mark [11] stands for this setting: read-out: Ki^1 (Experimental Ki).
Setting [12] is: read-out: IC50, Inhibition of FabI.
[13] abbreviates: read-out: Ki^2 (Calculated using the Cheng-Prusoff Equation).

Converted amounts (≈) assume the structure as drawn. Read-outs that look alike come from different tables or passages of the source.

Chain of FabI (Q5NGQ3 1-260 limits assumed): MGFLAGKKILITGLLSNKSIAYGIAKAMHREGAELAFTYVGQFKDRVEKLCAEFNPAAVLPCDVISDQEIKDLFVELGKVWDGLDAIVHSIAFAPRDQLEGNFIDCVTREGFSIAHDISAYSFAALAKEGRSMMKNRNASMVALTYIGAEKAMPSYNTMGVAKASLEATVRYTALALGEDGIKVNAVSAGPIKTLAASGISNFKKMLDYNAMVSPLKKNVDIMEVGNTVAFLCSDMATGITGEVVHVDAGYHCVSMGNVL
Chain of FtuFabI (Q5NGQ3 1-260 limits assumed): as above

With `CC(c1ccc(Cl)c(Cl)c1)n1cnc2cc3c(cc21)CCCC3` (stereo not shown) [Compound 4, 1-(1-(3,4-dichlorophenyl)ethyl)-5,6,7,8-tetrahydro-1H-naphtho[2,3-d]imidazole], the MIC in test [1] is 3.1 µg/mL (≈ 8.98 µM); in test [1] (Staphylococcus aureus), 3.1 µg/mL (≈ 8.98 µM); in test [3], 3.1 µg/mL (≈ 8.98 µM); in test [4] it was 3.1 µg/mL (≈ 8.98 µM); in test [7], 3.1 µg/mL (≈ 8.98 µM); in [8] it was above 12.5 µg/mL. Also, the MIC in test [10] came to 3.1 µg/mL (≈ 8.98 µM). The MBC in [1] (Staphylococcus aureus) was 25 µg/mL (≈ 72.4 µM); in test [3] it was 3.1 µg/mL (≈ 8.98 µM); in [4], 25 µg/mL (≈ 72.4 µM); in test [7], above 25 µg/mL; in test [10], 25 µg/mL (≈ 72.4 µM). In test [2], the “Depolarization (done at 2X MIC)” value was “Initially depolarizing (in first 60 min) but cells ‘recover’ and regain polarization compared to control with no compound”. Further, the Ki in test [5] was 570 ± 140 nM; in test [6], 510 nM. This molecule also gave an IC50 in test [6] of 630 nM. In test [9], the “Cell viability (done at 2X MIC)” value is “Clearly bacteriostatic”.

Take `COc1ccc(Cn2cnc3cc4c(cc32)CCCC4)cc1C` [Compound 9, 1-(4-methoxy-3-methylbenzyl)-5,6,7,8-tetrahydro-1H-naphtho[2,3-d]imidazole]: the MIC in [1] is 6.3 µg/mL (≈ 20.6 µM); in test [1] (Staphylococcus aureus), 6.3 µg/mL (≈ 20.6 µM); in [3] it was 6.3 µg/mL (≈ 20.6 µM); in test [4] it was 12.5 µg/mL (≈ 40.8 µM); in test [7] it was 4.7 µg/mL (≈ 15.3 µM); in test [8] it was above 12.5 µg/mL. The same molecule came in with an MIC in test [10] of 3.1 µg/mL (≈ 10.1 µM). The MBC was found to be 25 µg/mL (≈ 81.6 µM) in [1] (Staphylococcus aureus), 6.3 µg/mL (≈ 20.6 µM) in test [3], 9.4 µg/mL (≈ 30.7 µM) in [7] and 6.3 µg/mL (≈ 20.6 µM) in test [10]. Besides, the “Depolarization (done at 2X MIC)” value in [2] was “Initially depolarizing (in first 60 min) but cells ‘recover’ and regain polarization compared to control with no compound”. Also, the values for the Ki in [5] (setting [11]) and in test [6] (setting [13]) were 130 ± 10 nM and 110 nM, respectively. Further, the IC50 in [6] (read-out: IC50) and in [6] (setting [12]) was 140 nM in each case. Also, the “Cell viability (done at 2X MIC)” value in [9] is recorded as “Clearly bacteriostatic”.

In the case of `COc1ccc(Cn2cnc3cc4c(cc32)CCCC4)cc1OC` [Compound 10, 1-(3,4-dimethoxybenzyl)-5,6,7,8-tetrahydro-1H-naphtho[2,3-d]imidazole], the MIC in test [1] (Staphylococcus aureus), in [3], in test [4], in test [7], in test [8] and in [10] was above 12.5 µg/mL in each case. The Ki in test [5] (setting [11]) was 1430 ± 270 nM; in [6] (setting [13]), 1100 nM. For the same molecule, the IC50 in [6] (read-out: IC50) and in test [6] (setting [12]) was 1360 nM in each case.

With `c1cc2c(cc1Cn1cnc3cc4c(cc31)CCCC4)OCO2` [Compound 14, 1-(benzo[d][1,3]dioxol-5-ylmethyl)-5,6,7,8-tetrahydro-1H-naphtho[2,3-d]imidazole], the MIC in test [1] was 4.7 µg/mL (≈ 15.3 µM); in [1] (Staphylococcus aureus), 4.7 µg/mL (≈ 15.3 µM); in test [3] it was above 12.5 µg/mL; in test [4], 6.3 µg/mL (≈ 20.6 µM); in test [7], 9.4 µg/mL (≈ 30.7 µM); in test [8], above 12.5 µg/mL. The MIC in test [10] came to 4.7 µg/mL (≈ 15.3 µM). In addition, the MBC was above 25 µg/mL in test [1] (Staphylococcus aureus), above 25 µg/mL in test [4], 25 µg/mL (≈ 81.6 µM) in test [7] and 18.8 µg/mL (≈ 61.4 µM) in [10]. In test [2], the “Depolarization (done at 2X MIC)” value is “Clearly no depolarization seen”. Also, the Ki in test [5] (setting [11]) was 330 ± 40 nM; in test [6] (setting [13]), 260 nM. The concentration for half-maximal inhibition (IC50) in [6] (read-out: IC50) and in test [6] (setting [12]) was 320 nM throughout. Besides, the “Cell viability (done at 2X MIC)” value in test [9] was “Clearly bacteriostatic”.

What is called Ki is the dissociation constant of the complex between target and ligand, obtained from inhibition or displacement. As usually defined, the IC50 is the concentration needed to halve the response being measured.
